Assays:
Experiment in all cases: fitness (endpoint OD595 vs no drug) (fraction); higher = more growth
[1] = system: S. pneumoniae D39V
How it was run: (§1)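 Fitness compares growth at the stationary-phase transition with the robust mean of no-drug control wells, as a ratio of optical densities. The ratio is capped at 1. Wells of 384-well plates held 30 µl, or 55 µl for S. pneumoniae, inoculated at OD595 0.01. Readings at OD595 every 30 min for 14 h at 37 °C were corrected against the first reading.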

[2] = system: B. subtilis 168
How it was run: as §1

[3] = system: S. aureus DSM 20231
How it was run: as §1
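Also: OD595 on entry to stationary phase over no-drug wells; at most 1.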

CN(C)[C@@H]1C(O)=C(C(N)=O)C(=O)[C@@]2(O)C(O)=C3C(=O)c4c(O)ccc(Cl)c4[C@@](C)(O)[C@H]3C[C@@H]12 [Chlortetracycline] + CN(N=O)C(=O)N[C@@H](C=O)[C@@H](O)[C@H](O)[C@H](O)CO [Streptozotocin]
fitness, one replicate
Conditions | partner 0.15 µg/mL | partner 0.3 µg/mL | partner 0.6 µg/mL | partner 1.2 µg/mL | partner 2.4 µg/mL | partner 4.8 µg/mL
[1], first compound 0.012 µg/mL | – | – | – | 0.889 | 0.893 | 0.796
[1], first compound 0.024 µg/mL | – | – | – | 0.858 | 0.798 | 0.659
[1], first compound 0.048 µg/mL | – | – | – | 0.737 | 0.8 | 0.577
[3], first compound 0.006 µg/mL | 0.699 | 0.621 | 0.622 | – | – | –

fitness
Conditions | partner 0.15 µg/mL | partner 0.3 µg/mL | partner 0.6 µg/mL | partner 1.2 µg/mL | partner 2.4 µg/mL | partner 4.8 µg/mL
[1], first compound 0.375 µg/mL | – | – | – | 0.0355 | 0.0337 | 0.0486
[1], first compound 0.75 µg/mL | – | – | – | 0.0646 | 0.0497 | 0.0485
[1], first compound 1.5 µg/mL | – | – | – | 0.0765 | 0.0322 | 0.0617
[2], first compound 0.0475 µg/mL | 0.901 | 0.934 | 0.956 | – | – | –
[2], first compound 0.095 µg/mL | 0.786 | 0.762 | 0.784 | – | – | –
[2], first compound 0.19 µg/mL | 0.533 | 0.547 | 0.556 | – | – | –
[3], first compound 0.012 µg/mL | 0.503 | 0.532 | 0.507 | – | – | –
[3], first compound 0.024 µg/mL | 0.227 | 0.232 | 0.189 | – | – | –
[3], first compound 0.048 µg/mL | 0.0717 | 0.13 | 0.059 | – | – | –

CN(C)[C@@H]1C(O)=C(C(N)=O)C(=O)[C@@]2(O)C(O)=C3C(=O)c4c(O)ccc(Cl)c4[C@@](C)(O)[C@H]3C[C@@H]12 [Chlortetracycline] + Cc1ncc([N+](=O)[O-])n1CCO [Metronidazole]
Conditions | fitness
[1], first compound 0.012 µg/mL, partner 1.073 µg/mL | 0.958
[1], first compound 0.012 µg/mL, partner 4.29 µg/mL | 0.904
[1], first compound 0.024 µg/mL, partner 1.073 µg/mL | 0.972
[1], first compound 0.024 µg/mL, partner 4.29 µg/mL | 0.916
[1], first compound 0.048 µg/mL, partner 1.073 µg/mL | 0.855
[1], first compound 0.048 µg/mL, partner 2.145 µg/mL | 0.873
[1], first compound 0.048 µg/mL, partner 4.29 µg/mL | 0.872
[1], first compound 0.375 µg/mL, partner 1.25 µg/mL | 0.0344
[1], first compound 0.375 µg/mL, partner 2.5 µg/mL | 0.0383
[1], first compound 0.375 µg/mL, partner 5 µg/mL | 0.0668
[1], first compound 0.75 µg/mL, partner 1.25 µg/mL | 0.0404
[1], first compound 0.75 µg/mL, partner 2.5 µg/mL | 0.045
[1], first compound 0.75 µg/mL, partner 5 µg/mL | 0.0953
[1], first compound 1.5 µg/mL, partner 1.25 µg/mL | 0.0574
[1], first compound 1.5 µg/mL, partner 2.5 µg/mL | 0.0668
[1], first compound 1.5 µg/mL, partner 5 µg/mL | 0.0748
[2], first compound 0.0475 µg/mL, partner 0.625 µg/mL | 0.978
[2], first compound 0.0475 µg/mL, partner 1.25 µg/mL | 0.925
[2], first compound 0.0475 µg/mL, partner 2.5 µg/mL | 0.959
[2], first compound 0.095 µg/mL, partner 0.625 µg/mL | 0.888
[2], first compound 0.095 µg/mL, partner 1.25 µg/mL | 0.789
[2], first compound 0.095 µg/mL, partner 2.5 µg/mL | 0.822
[2], first compound 0.19 µg/mL, partner 0.625 µg/mL | 0.619
[2], first compound 0.19 µg/mL, partner 1.25 µg/mL | 0.586
[2], first compound 0.19 µg/mL, partner 2.5 µg/mL | 0.536
[3], first compound 0.048 µg/mL, partner 0.625 µg/mL | 0.196
[3], first compound 0.048 µg/mL, partner 1.25 µg/mL | 0.144
[3], first compound 0.048 µg/mL, partner 2.5 µg/mL | 0.124

[3], first compound 0.006 µg/mL, one replicate
Conditions | fitness
partner 0.625 µg/mL | 0.807
partner 1.25 µg/mL | 0.8
partner 2.5 µg/mL | 0.833

Reference: the supplement of paper PMC10627819
